The text below walks through data of paper PMC7405012, “Detection of Chaetomium globosum, Ch. cochliodes and Ch. rectangulare during the Diversity Tracking of Mycotoxin-Producing Chaetomium-like Isolates Obtained in Buildings in Finland” (Toxins, 2020).

Molecules are shown by their SMILES. Values after ≈ are worked out from the molar mass of the structure shown. Like-named read-outs stand apart in the source and are kept apart here. Where only a bound is given, the exact number is not on record here.

Test [1] relates to resting PK-15 cells. Description: Mitochondrial damage test: accelerated glucose consumption and extracellular acidosis. The test is classed as cell-based, porcine. As for the experimental part:
The mitochondria were depolarized in sperm cells exposed to sublethal concentrations of chaetoglobosin A (Figure 5) and to the chaetoglobosin-containing extracts (Table 3). This observation aroused the suspicion regarding mitochondrial toxicity. The mitochondrial toxicity of the extracts containing chaetoglobosin was assessed by measuring the accelerated glucose consumption in resting PK-15 cells. […] By contrast, the positive controls for mitochondrial toxicity—enniatin B, moniliformin and valinomycin at sublethal concentrations of 1.5, 4 and 5 ng mL^−1, respectively—promoted the acceleration of glycolysis.
The test for mitochondrial damage as indicated by accelerated glucose consumption and extracellular acidosis was described earlier. The PK-15 cells were grown in 8-well flat-bottom chamber glass slides, seeded to a density of 4 × 10^4 cells mL^−1, in the respective medium for 48 h. The twofold serially diluted test substances or the vehicle only was dispensed into the wells. The glucose content of the wells was measured by using a glucose meter (Precision Xceed; Abbott Diabetes Care Ltd., Berkshire, United Kingdom). In wells that received nothing or the vehicle only, the glucose concentration decreased from an initial concentration (0 h) of 12 to 6 mM (24 h), but the pH remained as pH of 7.2. A glucose concentration after 24 h of ≤3 mM indicated excessive glucose consumption. Prior to the measurement of the pH, the chamber slides were transferred into ambient air for 1 h to allow CO2 to evaporate. A pH drop of 0.5 units in the toxin-exposed well compared to the vehicle only was considered proof of acidosis. Mitochondrial depolarization (ΔΨm assay) was read by a fluorescence microscope after 26 h of exposure to the toxicants from the monolayers double stained with the membrane potential-responsive fluorogenic dye JC-1 and with propidium iodide to assess the relaxing of the plasma membrane permeability barrier, similar to what was reported previously for sperm cells (27).

The test system of test [2] is boar spermatozoa. Description: cells. It counts as cell-based. To be noted: Spermatozoa; motile boar sperm, 2 h, 37 °C; read-out: EC50 SMIDM Boar Sperm 2 h.
Test [3] relates to boar spermatozoa. Description: cells. It counts as cell-based. As to conditions: Spermatozoa, 20 min; motile boar sperm, 20 min, 37 °C; read-out: EC50 BSMIM Boar Sperm 20 min.
For test [4], the system named is resting boar spermatozoa. Description: Plasma membrane integrity of resting spermatozoa (SMIDR), calcein-AM + PI. The test is classed as cell-based. As to conditions: Spermatozoa, 48 h; resting boar sperm, 24 °C, 2 days; read-out: EC50 Lethal Toxicity SMIDR 2 days. As for the experimental part:
The long-term effects of exposure to chaetoglobosin A and to the chaetoglobosin-containing extracts of the Ch. globosum MTAV35 and MTAV37 strains were measured in resting sperm cells exposed at 24 °C for two days. Three criteria were assessed: (1) the motility inhibition of resting boar spermatozoa (BSMIR); (2) the change in mitochondrial membrane potential (ΔΨ) observed using the potentiometric dye JC-1; and (3) the plasma membrane integrity (SMIDR) observed using the viability stain calcein-AM + propidium iodide (PI). […] By contrast, the EC50 concentrations in the SMIDR assays, which measured the lethal damages in plasma membrane after incubation for two days, were >50 times higher (Figure 5 and Table 3).
(§1) The boar sperm cells exposed for 2 days to commercial chaetoglobosin A and the crude extract of MTAV35 and MTAV37 were double-stained with the viability stains PI + calcein–AM, the SMIDR assay, as described earlier. The staining protocol was as follows: 200 μL of extended boar semen containing 27 × 10^6 sperm cells mL^−1 was mixed with 200 μL PBS containing 3 μg mL^−1 calcein-AM and 10 μg mL^−1 PI. The ΔΨm assay monitored the mitochondrial membrane potential changes (ΔΨm) by staining with the lipophilic potentiometric dye JC-1 as described by Mikkola et al. (2015). For the staining with JC-1 (35 µg mL^−1), 200 µL of the sperm cells were shaken and incubated at 37 °C for 5 min. After staining, the cells exposed in the SMIDR and the ΔΨm assays were inspected with fluorescence microscope using 400× magnification (Nikon Eclipse E600, Nikon Corporation, Tokyo Japan) with filters BP 450–490 nm/LP 520. The calcein–AM-stained cells with intact plasma membranes produced green fluorescence, whereas the PI-dyed cells with damaged plasma membranes produced red fluorescence. In JC-1 stained sperm cells, mitochondria with high membrane potential emitted yellow fluorescence, whereas depolarized mitochondria fluoresced green.
(§2) The EC50 concentration in these microscopic assays was defined as the lowest concentration where the ratio of cells similar to those in the solvent control was less than 50%. This EC50 fitted between EC90 and EC10 observed in the microscope calculating ca. 100–120 sperm cells from three microscopic fields. The maximal difference between four parallel tests in each of the two methods was one dilution step. The assays were calibrated with triclosan.

The subject of test [5] is resting boar spermatozoa. Description: Mitochondrial membrane potential (ΔΨm) assay with JC-1 in resting spermatozoa. The test is classed as cell-based. The method, then: Three criteria were assessed: (1) the motility inhibition of resting boar spermatozoa (BSMIR); (2) the change in mitochondrial membrane potential (ΔΨ) observed using the potentiometric dye JC-1; and (3) the plasma membrane integrity (SMIDR) observed using the viability stain calcein-AM + propidium iodide (PI). […] By contrast, the EC50 concentrations in the SMIDR assays, which measured the lethal damages in plasma membrane after incubation for two days, were >50 times higher (Figure 5 and Table 3).
as §1, §2

With `C/C1=C\[C@@H](C)C/C=C/[C@H]2[C@@H]3O[C@]3(C)[C@@H](C)[C@H]3[C@H](Cc4c[nH]c5ccccc45)NC(=O)[C@]32C(=O)/C=C/C(=O)[C@@H]1O` [Chaetoglobosin A, chaetoglobosin A], the “EC50 Sublethal Toxicity Acceleration of glycolysis 1 day” value in test [1] (PK-15, 1 day) is “None”. Further, the “EC50 Sublethal Toxicity Acidosis 2 days” value in test [1] (PK-15, 2 days) is on record as “None”. Further, the EC50 in test [2] was 12 µg/mL (≈ 22.7 µM); in test [3] it was 1 µg/mL (≈ 1.89 µM); in test [5] (Spermatozoa, 48 h, read-out: EC50 Sublethal Toxicity Depletion of ΔΨm 2 days, resting boar sperm, JC-1, 2 days), 3 to 4 µg/mL (≈ 5.67 to 7.57 µM). Also, the CC50 in test [4] is greater than 20 µg/mL. For the same molecule, in test [5] (resting boar sperm, JC-1, 2 days), the “EC50 Sublethal Toxicity Depletion of ΔΨm 2 days” value amounted to 2 µg/mL.
